Laboratory results: USRE32455E, “A-21978 antibiotics and process for their production” (priority 1985, dated 1987)
Values after ≈ are worked out from the molar mass of the structure shown. Values joined by “and” are separate entries in the source; they are usually repeats but may differ in a detail not shown here. Equal entries are not always repeated.

Legend:
Clostridium septicum = experiment: MIC anaerobic bacteria, standard agar-dilution test; format: cell-based
Propionibacterium acnes = experiment: as above; format: cell-based
[1] = system: Group D Streptococcus 282; experiment: MIC, standard broth-dilution test; format: cell-based; conditions: Table XII, sodium salt
Streptococcus pyogenes [2] = experiment: MIC, agar dilution (Table XV); format: cell-based
[3] = system: Group D Streptococcus 282; experiment: MIC, standard agar-dilution test; format: cell-based; conditions: Table XI, sodium salt
[4] = system: Fusobacterium necrophorum; experiment: MIC anaerobic bacteria, standard agar-dilution test; format: cell-based
[5] = system: Neisseria gonorrhoeae 111076-4; experiment: MIC, standard agar-dilution test; format: cell-based; conditions: Table XI, sodium salt
[6] = system: Streptococcus pneumoniae Park I; experiment: MIC, standard agar-dilution test; format: cell-based; conditions: Table XI, sodium salt
Fusobacterium symbiosum = experiment: MIC anaerobic bacteria, standard agar-dilution test; format: cell-based
Clostridium perfringens = format: cell-based; conditions: anaerobic, agar-dilution
Peptococcus prevoti = experiment: MIC anaerobic bacteria, standard agar-dilution test; format: cell-based
Toxicity (LD50) in rat = format: in vivo; conditions: IV
Toxicity (LD50) in mouse = format: in vivo
Streptococcus pneumoniae [7] = experiment: MIC, agar dilution (Table XV); format: cell-based
[8] = system: Peptococcus asaccharolyticus; experiment: MIC anaerobic bacteria, standard agar-dilution test; format: cell-based
[9] = system: Streptococcus faecalis (Guze); experiment: In vitro susceptibility (MIC) of the S. faecalis Guze strain; format: cell-based; conditions: Table XVI
[10] = system: Staphylococcus aureus 3055; experiment: MIC, standard broth-dilution test; format: cell-based; conditions: Table XII, sodium salt
[11] = system: Streptococcus faecalis (Guze); experiment: Streptococcus faecalis descending rat pyelonephritis test; format: in vivo, rat (female albino, Cox-Wistar); conditions: 1.0 mg/kg × 7, subcutaneous
Description: In this test, the bacterial culture used was Streptococcus faecalis (Guze). The culture was grown on Trypticase soy agar (BBL), suspended in brain heart infusion broth (BBL), divided into 0.2-ml portions, and frozen in liquid nitrogen. Bacterial suspensions for rat inoculations were prepared daily by seeding a 50-ml flask of trypticase soy broth (BBL) from a frozen ampoule and growing the culture overnight at 37° C. on a shaker. The S. faecalis culture was diluted to 5×10^8 colony-forming units per ml. Test compounds were injected subcutaneously once daily for seven days. All compounds were suspended in 0.125% carboxymethylcellulose.
The experimental rat infections were accomplished by the following procedure. Female, random-bred albino rats (Cox-Wistar) weighing 190 to 210 g were anesthetized by intraperitoneal injection of 12 mg of sodium methohexital supplemented as necessary. The experimental pyelonephritis model was based on the studies of Guze and Beeson in which the left ureter was occluded for 20 min, followed by injection of 0.5 ml of the test organism in the femoral vein. Antimicrobial therapy was commenced 4 to 5 hrs postinfection. Four hours after the last treatment the rats were sacrificed, and the left kidney was removed and homogenized in a Duall grinder containing 9 ml of physiological saline. This represented a 10^-1 dilution of the kidney tissue. Additional 10-fold dilutions in saline were based on the anticipated bacterial cells present in the tissue homogenate. Finally, duplicate agar pour plates were made from several of these dilutions, and the plates were incubated overnight at 37° C. The therapeutic results were expressed in two ways: (i) the percentage of rats with kidney counts of less than 10^2 per g of kidney tissue, referred to as "cures," and (ii) the percentage of rats with at least a 4-log10 reduction in bacterial titer compared with infected control kidneys. Control rats were treated with 0.125% carboxymethylcellulose only. Viable cell counts in kidney tissue from control rats with S. faecalis ranged from 1.2×10^8 to 4.6×10^8 per g of homogenized tissue.

Staphylococcus aureus [12] = experiment: MIC, agar dilution (Table XV); format: cell-based
Excerpt: ^1 MIC = minimum inhibitory concentration (μg/ml), agar dilution

[13] = system: Peptostreptococcus intermedius; experiment: MIC anaerobic bacteria, standard agar-dilution test; format: cell-based
[14] = system: Streptococcus pyogenes C203; experiment: MIC, standard broth-dilution test; format: cell-based; conditions: Table XII, sodium salt
Actinomyces isaelii = experiment: MIC anaerobic bacteria, standard agar-dilution test; format: cell-based
[15] = system: Streptococcus pyogenes C203; experiment: MIC, standard agar-dilution test; format: cell-based; conditions: Table XI, sodium salt
Micrococcus luteus = experiment: Bioassay, paper-disc agar-diffusion; conditions: Na salts; Table VIII
Bacteroides fragilis = experiment: MIC anaerobic bacteria, standard agar-dilution test; format: cell-based
[16] = system: Streptococcus pneumoniae Park I; experiment: MIC, standard broth-dilution test; format: cell-based; conditions: Table XII, sodium salt
[17] = system: Peptostreptococcus anaerobius; experiment: MIC anaerobic bacteria, standard agar-dilution test; format: cell-based
Eubacterium aerofaciens = experiment: as above; format: cell-based
[18] = system: Viridans Streptococcus 9943; experiment: MIC, standard broth-dilution test; format: cell-based; conditions: Table XII, sodium salt
Streptococcus pneumoniae [19] = experiment: Experimental bacterial infection in mice, ED50; format: in vivo; conditions: two doses, subcutaneous administration
Description: (§1) When two doses of test compound were administered to mice in illustrative infections, the activity observed was measured as an ED50 value [effective dose in mg/kg to protect fifty percent of the test animals: See Warren Wick, et al., J. Bacteriol. 81, 233-235 (1961)].

Streptococcus pyogenes [20] = experiment: Experimental bacterial infection in mice, ED50; format: in vivo; conditions: two doses
Description: as §1

Staphylococcus aureus [21] = experiment: Experimental bacterial infection in mice, ED50; format: in vivo; conditions: two doses, subcutaneous administration
Description: as §1

[22] = system: Viridans Streptococcus 9943; experiment: MIC, standard agar-dilution test; format: cell-based; conditions: Table XI, sodium salt
[23] = system: Staphylococcus aureus 3055; experiment: MIC, standard agar-dilution test; format: cell-based; conditions: Table XI, sodium salt
[24] = Electrometric titration in 66% aqueous dimethylformamide; format: physicochemical; conditions: 66% DMF; Na salt; factors: two determinations
[25] = system: pathogenic organisms, particularly gram-positive bacteria; experiment: Inhibition of growth of pathogenic organisms; format: cell-based

SMILES	MIC (Clostridium septicum) [µg/mL]	MIC (Propionibacterium acnes) [µg/mL]	MIC [1] [µg/mL]	MIC (Streptococcus pyogenes [2]) [µg/mL]	MIC [3] [µg/mL]	MIC [4] [µg/mL]	MIC [5] [µg/mL]	MIC [6] [µg/mL]	MIC (Fusobacterium symbiosum) [µg/mL]	MIC (Clostridium perfringens) [µg/mL]	MIC (Peptococcus prevoti) [µg/mL]	LD50 (Toxicity (LD50) in rat) [mg/kg]	LD50 (Toxicity (LD50) in mouse; IV) [mg/kg]	LD50 (Toxicity (LD50) in mouse; SC) [mg/kg]	MIC (Streptococcus pneumoniae [7]) [µg/mL]	MIC [8] [µg/mL]	MIC [9] [µg/mL]	MIC [10] [µg/mL]	Percent of Rats Cured [11] [%]	Percent of Rats with a 4-Log Titer Decrease [11] [%]	also measured
CC(C)CCCCCCCCC(=O)N[C@@H](Cc1c[nH]c2ccccc12)C(=O)N[C@@H](CC(N)=O)C(=O)N[C@@H](CC(=O)O)C(=O)N[C@@H]1C(=O)NCC(=O)N[C@@H](CCCN)C(=O)N[C@@H](CC(=O)O)C(=O)N[C@H](C)C(=O)N[C@@H](CC(=O)O)C(=O)NCC(=O)N[C@H](CO)C(=O)N[C@@H]([C@H](C)CC(=O)O)C(=O)N[C@@H](CC(=O)c2ccccc2N)C(=O)O[C@@H]1C [Factor C2]	1.0 (≈ 0.607 µM)	2 (≈ 1.21 µM)	1.0	0.13 (≈ 0.0788 µM)	0.25	64 (≈ 38.8 µM)	4.0	0.25	> 128	8 (≈ 4.85 µM)	1.0 (≈ 0.607 µM)	204 ± 17	150 to 250	175	0.13 (≈ 0.0788 µM)	2 (≈ 1.21 µM)	0.25 (≈ 0.152 µM)	0.5	89	100	MIC (Staphylococcus aureus [12]): 0.13 µg/mL (≈ 0.0788 µM); MIC [13]: 1.0 µg/mL (≈ 0.607 µM); MIC [14]: 0.25 µg/mL; MIC (Actinomyces isaelii): 1.0 µg/mL (≈ 0.607 µM); MIC [15]: 0.13 µg/mL; Bioassay (Micrococcus luteus) (Micrococcus luteus): 1390 units/mg; MIC (Bacteroides fragilis): > 128 µg/mL; MIC [16]: 1.0 µg/mL; MIC [17]: 1.0 µg/mL (≈ 0.607 µM); MIC (Eubacterium aerofaciens): 8 µg/mL (≈ 4.85 µM); MIC [18]: 16.0 µg/mL; ED50 (Streptococcus pneumoniae [19]): 0.14 mg/kg; ED50 (Streptococcus pyogenes [20]): 0.032 mg/kg; ED50 (Streptococcus pyogenes [20]; oral administration): 59 mg/kg; ED50 (Staphylococcus aureus [21]): 0.16 mg/kg; MIC [22]: 1.0 µg/mL; MIC [23]: 0.13 µg/mL; pKa (first group) [24]: 5.8 and 5.93; pKa (second group) [24]: 7.6 and 7.63; growth inhibition [25]: inhibit the growth of certain pathogenic organisms, particularly gram-positive bacteria
CCC(C)CCCCCCCCC(=O)N[C@@H](Cc1c[nH]c2ccccc12)C(=O)N[C@@H](CC(N)=O)C(=O)N[C@@H](CC(=O)O)C(=O)N[C@@H]1C(=O)NCC(=O)N[C@@H](CCCN)C(=O)N[C@@H](CC(=O)O)C(=O)N[C@H](C)C(=O)N[C@@H](CC(=O)O)C(=O)NCC(=O)N[C@H](CO)C(=O)N[C@@H]([C@H](C)CC(=O)O)C(=O)N[C@@H](CC(=O)c2ccccc2N)C(=O)O[C@@H]1C (some centres unmarked) [Factor C3]	1.0 (≈ 0.601 µM)	1.0 (≈ 0.601 µM)	0.13	0.06 (≈ 0.0361 µM)	0.13	32 (≈ 19.2 µM)	4.0	0.13	16 (≈ 9.62 µM)	8 (≈ 4.81 µM)	< 0.5	< 160	< 50	70 to 75	0.03 (≈ 0.018 µM)	1.0 (≈ 0.601 µM)	0.13 (≈ 0.0782 µM)	0.13	78	78	MIC (Staphylococcus aureus [12]): 0.06 µg/mL (≈ 0.0361 µM); MIC [13]: < 0.5 µg/mL; MIC [14]: 0.13 µg/mL; MIC (Actinomyces isaelii): 1.0 µg/mL (≈ 0.601 µM); MIC [15]: 0.25 µg/mL; Bioassay (Micrococcus luteus) (Micrococcus luteus): 803 units/mg; MIC (Bacteroides fragilis): > 128 µg/mL; MIC [16]: 0.5 µg/mL; MIC [17]: 1.0 µg/mL (≈ 0.601 µM); MIC (Eubacterium aerofaciens): 4 µg/mL (≈ 2.41 µM); MIC [18]: 32.0 µg/mL; ED50 (Streptococcus pneumoniae [19]): 0.09 mg/kg; ED50 (Streptococcus pyogenes [20]): 0.032 mg/kg; ED50 (Streptococcus pyogenes [20]; oral administration): 66 mg/kg; ED50 (Staphylococcus aureus [21]): 0.08 mg/kg; MIC [22]: 0.5 µg/mL; MIC [23]: 0.06 µg/mL; pKa (first group) [24]: 5.73 and 5.75; pKa (second group) [24]: 7.54 and 7.58; growth inhibition [25]: inhibit the growth of certain pathogenic organisms, particularly gram-positive bacteria
